From US20260015358A1, “BICYCLIC DERIVATIVES, COMPOSITIONS AND USES THEREOF” (Danatlas Pharmaceuticals Co., Ltd., priority 2023, published 2026) come the findings set out here.

The structures appear in SMILES notation.

For assay [1], the target named is T1, WRN [UniPro: Q14191 (WRN_HUMAN), N500-C946] (Homo sapiens (Human), UniProt Q14191). Put plainly: WRN ATPase assay (ADP-Glo). Type of assay: biochemical. The conditions noted are these: WRN enzymatic activity assay. On the technique in general: ADP-Glo first removes unused ATP, then detects ADP through luciferase.
Assay [2] addresses T1, WRN [UniPro: Q14191 (WRN_HUMAN), N500-C946]. The experiment in a line: WRN unwinding assay (FORKF DNA, fluorescence). In kind it is biochemical. Conditions: Table 14.

T1 sequence (Q14191 500-946): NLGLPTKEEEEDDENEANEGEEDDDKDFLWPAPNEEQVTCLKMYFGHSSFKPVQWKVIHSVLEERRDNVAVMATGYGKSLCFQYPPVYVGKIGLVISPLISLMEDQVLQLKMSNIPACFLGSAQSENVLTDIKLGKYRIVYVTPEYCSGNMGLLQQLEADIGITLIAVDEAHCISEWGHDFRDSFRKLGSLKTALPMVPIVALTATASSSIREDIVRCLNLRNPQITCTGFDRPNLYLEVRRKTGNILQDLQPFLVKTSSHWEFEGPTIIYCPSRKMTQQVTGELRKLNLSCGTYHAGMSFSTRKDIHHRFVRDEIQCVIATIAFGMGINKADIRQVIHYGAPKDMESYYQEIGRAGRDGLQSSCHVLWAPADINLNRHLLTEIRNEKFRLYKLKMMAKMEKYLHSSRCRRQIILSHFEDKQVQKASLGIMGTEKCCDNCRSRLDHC

`CCc1c(N2CCN(C(=O)C(=O)Nc3nccs3)CC2)c(=O)n2nc(N3CCOCC3)nc2n1CC(=O)Nc1ccc(C(F)(F)F)cc1F` [Example 260, 2-(4-(5-Ethyl-4-(2-((2-fluoro-4-(trifluoromethyl)phenyl)amino)-2-oxoethyl)-2-morpholino-7-oxo-4,7-dihydro-[1,2,4]triazolo[1,5-a]pyrimidin-6-yl)piperazin-1-yl)-2-oxo-N-(thiazol-2-yl)acetamide]: the IC50 in assay [1] and in assay [2] was less than 100 nM throughout.

As to `CCc1c(N2CCN(C(=O)C(=O)Nc3nccs3)CC2)c(=O)n2nc(N3CCn4cncc4C3)nc2n1CC(=O)Nc1ccc(C(F)(F)F)cc1F` [Example 261, 2-(4-(2-(5,6-Dihydroimidazo[1,5-a]pyrazin-7 (8H)-yl)-5-ethyl-4-(2-((2-fluoro-4-(trifluoromethyl)phenyl)amino)-2-oxoethyl)-7-oxo-4,7-dihydro-[1,2,4]triazolo[1,5-a]pyrimidin-6-yl)piperazin-1-yl)-2-oxo-N-(thiazol-2-yl)acetamide], the IC50 in assay [1] and in assay [2] was less than 100 nM throughout.

Regarding `CCc1c(N2CCN(C(=O)C(=O)Nc3nccs3)CC2)c(=O)n2nc(N3CCCOCC3)nc2n1CC(=O)Nc1ccc(C(F)(F)F)cc1F` [Example 262, 2-(4-(5-Ethyl-4-(2-((2-fluoro-4-(trifluoromethyl)phenyl)amino)-2-oxoethyl)-2-(1,4-oxazepan-4-yl)-7-oxo-4,7-dihydro-[1,2,4]triazolo[1,5-a]pyrimidin-6-yl)piperazin-1-yl)-2-oxo-N-(thiazol-2-yl)acetamide], the IC50 was 100 to 1000 nM in assay [1] and less than 100 nM in assay [2].

On to `CCc1c(N2CCN(C(=O)CNC(=O)c3ccccc3F)CC2)c(=O)n2nc(N3Cc4cnn(C)c4C3)nc2n1CC(=O)Nc1cc(C)cs1` [Example 263, N-(2-(4-(5-Ethyl-2-(1-methyl-4,6-dihydropyrrolo[3,4-c]pyrazol-5 (1H)-yl)-4-(2-((4-methylthiophen-2-yl)amino)-2-oxoethyl)-7-oxo-4,7-dihydro-[1,2,4]triazolo[1,5-a]pyrimidin-6-yl)piperazin-1-yl)-2-oxoethyl)-2-fluorobenzamide], for which the IC50 in assay [1] and in assay [2] was less than 100 nM each time.

Regarding `CCc1c(N2CCN(C(=O)C(=O)Nc3nccs3)CC2)c(=O)n2nc(N3CCN4C(=O)OC[C@H]4C3)nc2n1CC(=O)Nc1ccc(C(F)(F)F)cc1F` [Example 264, (R)-2-(4-(5-Ethyl-4-(2-((2-fluoro-4-(trifluoromethyl)phenyl)amino)-2-oxoethyl)-7-oxo-2-(3-oxotetrahydro-3H-oxazolo[3,4-a]pyrazin-7 (1H)-yl)-4,7-dihydro-[1,2,4]triazolo[1,5-a]pyrimidin-6-yl)piperazin-1-yl)-2-oxo-N-(thiazol-2-yl)acetamide], the IC50 in assay [1] and in assay [2] was less than 100 nM throughout.

Turning to `CCc1c(N2CCN(C(=O)CNC(=O)NC(=O)c3cc(F)ccc3F)CC2)c(=O)n2nc(C3=CCOCC3)nc2n1CC(=O)Nc1ccc(C(F)(F)F)cc1Cl` [Example 265, N-((2-(4-(4-(2-((2-Chloro-4-(trifluoromethyl)phenyl)amino)-2-oxoethyl)-2-(3,6-dihydro-2H-pyran-4-yl)-5-ethyl-7-oxo-4,7-dihydro-[1,2,4]triazolo[1,5-a]pyrimidin-6-yl)piperazin-1-yl)-2-oxoethyl)carbamoyl)-2,5-difluorobenzamide], the IC50 in assay [1] and in assay [2] was less than 100 nM each time.

Consider `CCc1c(N2CCN(C(=O)CNC(=O)Cc3ccccc3)CC2)c(=O)n2nc(C3=CCOCC3)nc2n1CC(=O)Nc1ccc(C(F)(F)F)cc1Cl` [Example 267, N-(2-Chloro-4-(trifluoromethyl)phenyl)-2-(2-(3,6-dihydro-2H-pyran-4-yl)-5-ethyl-7-oxo-6-(4-((2-phenylacetyl)glycyl)piperazin-1-yl)-[1,2,4]triazolo[1,5-a]pyrimidin-4(7H)-yl)acetamide], for which the IC50 in assay [1] and in assay [2] was less than 100 nM in each case.

In the case of `CCc1c(N2CCN(C(=O)CNC(=O)c3cncs3)CC2)c(=O)n2nc(C3=CCOCC3)nc2n1CC(=O)Nc1ccc(C(F)(F)F)cc1Cl` [Example 268, N-(2-(4-(4-(2-((2-Chloro-4-(trifluoromethyl)phenyl)amino)-2-oxoethyl)-2-(3,6-dihydro-2H-pyran-4-yl)-5-ethyl-7-oxo-4,7-dihydro-[1,2,4]triazolo[1,5-a]pyrimidin-6-yl)piperazin-1-yl)-2-oxoethyl)thiazole-5-carboxamide], the IC50 in assay [1] and in assay [2] was less than 100 nM each time.

Take `CCc1c(N2CCN(C(=O)CNC(=O)c3ccccc3O)CC2)c(=O)n2nc(C3=CCOCC3)nc2n1CC(=O)Nc1ccc(C(F)(F)F)cc1Cl` [Example 269, N-(2-(4-(4-(2-((2-Chloro-4-(trifluoromethyl)phenyl)amino)-2-oxoethyl)-2-(3,6-dihydro-2H-pyran-4-yl)-5-ethyl-7-oxo-4,7-dihydro-[1,2,4]triazolo[1,5-a]pyrimidin-6-yl)piperazin-1-yl)-2-oxoethyl)-2-hydroxybenzamide]: the IC50 in assay [1] and in assay [2] was less than 100 nM throughout.

Take `CCc1c(N2CCN(C(=O)CNC(=O)c3cccc(O)c3)CC2)c(=O)n2nc(C3=CCOCC3)nc2n1CC(=O)Nc1ccc(C(F)(F)F)cc1Cl` [Example 270, N-(2-(4-(4-(2-((2-Chloro-4-(trifluoromethyl)phenyl)amino)-2-oxoethyl)-2-(3,6-dihydro-2H-pyran-4-yl)-5-ethyl-7-oxo-4,7-dihydro-[1,2,4]triazolo[1,5-a]pyrimidin-6-yl)piperazin-1-yl)-2-oxoethyl)-3-hydroxybenzamide]: the half-inhibitory concentration (IC50) in assay [1] and in assay [2] was less than 100 nM each time.

In the case of `CCc1c(N2CCN(C(=O)CNC(=O)c3ncccc3O)CC2)c(=O)n2nc(C3=CCOCC3)nc2n1CC(=O)Nc1ccc(C(F)(F)F)cc1Cl` [Example 271, N-(2-(4-(4-(2-((2-Chloro-4-(trifluoromethyl)phenyl)amino)-2-oxoethyl)-2-(3,6-dihydro-2H-pyran-4-yl)-5-ethyl-7-oxo-4,7-dihydro-[1,2,4]triazolo[1,5-a]pyrimidin-6-yl)piperazin-1-yl)-2-oxoethyl)-3-hydroxypicolinamide], the IC50 was 100 to 1000 nM in assay [1] and less than 100 nM in assay [2].

With `CCc1c(N2CCN(C(=O)CNC(=O)CC3CCC3)CC2)c(=O)n2nc(C3=CCOCC3)nc2n1CC(=O)Nc1ccc(C(F)(F)F)cc1Cl` [Example 272, N-(2-Chloro-4-(trifluoromethyl)phenyl)-2-(6-(4-((2-cyclobutylacetyl)glycyl)piperazin-1-yl)-2-(3,6-dihydro-2H-pyran-4-yl)-5-ethyl-7-oxo-[1,2,4]triazolo[1,5-a]pyrimidin-4(7H)-yl)acetamide], the IC50 in assay [1] and in assay [2] was less than 100 nM throughout.

`CCc1c(N2CCN(C(=O)CNC(=O)CC3COC3)CC2)c(=O)n2nc(C3=CCOCC3)nc2n1CC(=O)Nc1ccc(C(F)(F)F)cc1Cl` [Example 273, N-(2-Chloro-4-(trifluoromethyl)phenyl)-2-(2-(3,6-dihydro-2H-pyran-4-yl)-5-ethyl-6-(4-((2-(oxetan-3-yl)acetyl)glycyl)piperazin-1-yl)-7-oxo-[1,2,4]triazolo[1,5-a]pyrimidin-4(7H)-yl)acetamide]: the values for the IC50 in assay [1] and in assay [2] were 100 to 1000 nM and less than 100 nM, respectively.

As usually defined, the IC50 is the concentration that gives 50% inhibition. Low readings indicate greater potency in that assay, high ones weaker potency in that assay.
